Several values for one entry are separate records, joined by “and”; a condition that tells them apart may be missing. Identical values can stand only once. Toxic doses and inconclusive results are not listed.
System: P388 leukemia ip, CD2F1 mice, survival T/C
Test: NCI In Vivo Anticancer Drug Screen. Data for tumor model P388 Leukemia (intraperitoneal) in CD2F1 (CDF1) mice
Conditions: endpoint: median survival time, higher = longer survival
In short: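 Mice carrying the transplanted tumor received test compound or vehicle. Survival was recorded in each group, and the value is the treated-group measurement divided by that of the vehicle-treated control group.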

[1] = dose: 50.0 mg/kg/injection, schedule: Q01DX009 (ip), vehicle: saline with Tween-80
[2] = dose: 100.0 mg/kg/injection, schedule: Q01DX009 (ip), vehicle: saline with Tween-80
[3] = dose: 200.0 mg/kg/injection, schedule: Q01DX009 (ip), vehicle: saline with Tween-80
[4] = dose: 60.0 mg/kg/injection, schedule: Q01DX005 (ip), vehicle: saline with Tween-80
[5] = dose: 120.0 mg/kg/injection, schedule: Q01DX005 (ip), vehicle: saline with Tween-80
[6] = dose: 240.0 mg/kg/injection, schedule: Q01DX005 (ip), vehicle: saline with Tween-80
[7] = dose: 100.0 mg/kg/injection, schedule: Q04DX002 (ip), vehicle: Klucel (hydroxypropylcellulose) (HPC)
[8] = dose: 200.0 mg/kg/injection, schedule: Q04DX002 (ip), vehicle: Klucel (hydroxypropylcellulose) (HPC)
[9] = dose: 400.0 mg/kg/injection, schedule: Q04DX002 (ip), vehicle: Klucel (hydroxypropylcellulose) (HPC)
[10] = dose: 50.0 mg/kg/injection, schedule: Q01DX009 (ip), vehicle: Klucel (hydroxypropylcellulose) (HPC)
[11] = dose: 100.0 mg/kg/injection, schedule: Q01DX009 (ip), vehicle: Klucel (hydroxypropylcellulose) (HPC)
[12] = dose: 200.0 mg/kg/injection, schedule: Q01DX009 (ip), vehicle: Klucel (hydroxypropylcellulose) (HPC)
[13] = dose: 50.0 mg/kg/injection, schedule: Q01DX005 (ip), vehicle: saline with Tween-80
[14] = dose: 100.0 mg/kg/injection, schedule: Q01DX005 (ip), vehicle: saline with Tween-80
[15] = dose: 200.0 mg/kg/injection, schedule: Q01DX005 (ip), vehicle: saline with Tween-80
[16] = dose: 50.0 mg/kg/injection, schedule: Q01DX005 (ip), vehicle: Klucel (hydroxypropylcellulose) (HPC)
[17] = dose: 100.0 mg/kg/injection, schedule: Q01DX005 (ip), vehicle: Klucel (hydroxypropylcellulose) (HPC)
[18] = dose: 200.0 mg/kg/injection, schedule: Q01DX005 (ip), vehicle: Klucel (hydroxypropylcellulose) (HPC)

`O=C(O)C(=O)O.OO.OO.[O]=[V]` was tested, and the T/C (dose: 0.94 mg/kg/injection, schedule: Q01DX005 (ip), vehicle: saline) was 92 % of control and the T/C (dose: 3.75 mg/kg/injection, schedule: Q01DX005 (ip), vehicle: saline) was 110 % of control.
In the case of `CCCCCCC(=O)CC(SCC)c1ccc(Cl)c(Cl)c1` (configuration not stated), the T/C [1] is reported as 100 % of control, the T/C [2] is reported as 97 % of control and the T/C [3] is reported as 106 % of control.
For `COC(=O)C(=O)c1c(C(=O)OC)nc2nnc(N)n2c1-c1cccc([N+](=O)[O-])c1`, the T/C (dose: 15.0 mg/kg/injection, schedule: Q01DX005 (ip), vehicle: saline with Tween-80) was 92 % of control, the T/C (dose: 30.0 mg/kg/injection, schedule: Q01DX005 (ip), vehicle: saline with Tween-80) was 91 % of control and the T/C [4] was 88 % of control. The T/C [5] was 86 % of control.
With `COC(=O)C1=NOC(COc2ccc([N+](=O)[O-])cc2)C1` (configuration not stated) the T/C [4] was 100 % of control, the T/C [5] was 93 % of control and the T/C [6] was 86 % of control.
In the case of `C#CCOc1ccc(O)c(C(=O)OCCCOC(=O)c2cc(OCC#C)ccc2O)c1`, the T/C [4] is reported as 104 % of control, the T/C [5] is reported as 98 % of control and the T/C [6] is reported as 100 % of control.
With `CC1CCOBO1` (configuration not stated) the T/C [7] was 98 % of control, the T/C [8] was 101 % of control and the T/C [9] was 98 % of control.
In the case of `O=CNCO`, the T/C (dose: 250.0 mg/kg/injection, schedule: Q01DX005 (ip), vehicle: water) is reported as 100 % of control, the T/C (dose: 500.0 mg/kg/injection, schedule: Q01DX005 (ip), vehicle: water) is reported as 101 % of control and 103 % of control and the T/C (dose: 1000.0 mg/kg/injection, schedule: Q01DX005 (ip), vehicle: water) is reported as 108 % of control and 110 % of control. The T/C (dose: 2000.0 mg/kg/injection, schedule: Q01DX005 (ip), vehicle: water) was 114 % of control.
In the case of `CCCCn1cnc2c(cnn2C)c1=N`, the T/C (dose: 100.0 mg/kg/injection, schedule: Q04DX002 (ip), vehicle: saline) is reported as 97 % of control and the T/C (dose: 200.0 mg/kg/injection, schedule: Q04DX002 (ip), vehicle: saline) is reported as 97 % of control.
`CC1C=CC(C)S(=O)N1C(=O)Cc1ccccc1` (configuration not stated) was tested, and the T/C (dose: 60.0 mg/kg/injection, schedule: Q01DX005 (ip), vehicle: Klucel (hydroxypropylcellulose) (HPC)) was 100 % of control, the T/C (dose: 120.0 mg/kg/injection, schedule: Q01DX005 (ip), vehicle: Klucel (hydroxypropylcellulose) (HPC)) was 106 % of control and the T/C (dose: 240.0 mg/kg/injection, schedule: Q01DX005 (ip), vehicle: Klucel (hydroxypropylcellulose) (HPC)) was 113 % of control.
With `FC(F)(F)C(OCC1CO1)(c1cccc(C(OCC2CO2)(C(F)(F)F)C(F)(F)F)c1)C(F)(F)F` (configuration not stated) the T/C [10] was 99 % of control, the T/C [11] was 100 % of control and the T/C [12] was 100 % of control.
For `CCCC(O)(CCC)/C(C)=N/NC(N)=O`, the T/C [1] was 95 % of control, the T/C [2] was 97 % of control and the T/C [3] was 92 % of control.
`Cc1oc2c(C)c3oc(=O)cc(C)c3cc2c1CN1C(=O)c2ccccc2C1=O` was tested, and the T/C (dose: 100.0 mg/kg/injection, schedule: Q05DX002 (ip), vehicle: saline with Tween-80) was 99 % of control, the T/C (dose: 200.0 mg/kg/injection, schedule: Q05DX002 (ip), vehicle: saline with Tween-80) was 92 % of control and the T/C (dose: 400.0 mg/kg/injection, schedule: Q05DX002 (ip), vehicle: saline with Tween-80) was 98 % of control.
In the case of `Clc1ccccc1C(Nc1cnccn1)Nc1cnccn1`, the T/C [13] is reported as 120 % of control, the T/C [14] is reported as 114 % of control and the T/C [15] is reported as 110 % of control. For the same compound, the T/C (dose: 400.0 mg/kg/injection, schedule: Q01DX005 (ip), vehicle: saline with Tween-80) was 121 % of control.
In the case of `NC(=O)c1[nH]cnc1/N=N/N(CCCl)Cc1ccccc1`, the T/C (dose: 44.0 mg/kg/injection, schedule: Q01DX009 (ip), vehicle: Klucel (hydroxypropylcellulose) (HPC)) is reported as 122 % of control, the T/C [11] is reported as 196 % of control and the T/C (dose: 150.0 mg/kg/injection, schedule: Q01DX009 (ip), vehicle: Klucel (hydroxypropylcellulose) (HPC)) is reported as 196 % of control. The T/C (dose: 200.0 mg/kg/injection, schedule: Q04DX003 (ip), vehicle: Klucel (hydroxypropylcellulose) (HPC)) was 182 % of control and the T/C (dose: 400.0 mg/kg/injection, schedule: Q04DX003 (ip), vehicle: Klucel (hydroxypropylcellulose) (HPC)) was 256 % of control.
`Cc1cc(C)c(S(=O)(=O)Sc2nnnn2C)c(C)c1` was tested, and the T/C (dose: 12.5 mg/kg/injection, schedule: Q01DX009 (ip), vehicle: Klucel (hydroxypropylcellulose) (HPC)) was 102 % of control, the T/C (dose: 25.0 mg/kg/injection, schedule: Q01DX009 (ip), vehicle: Klucel (hydroxypropylcellulose) (HPC)) was 104 % of control and the T/C [10] was 95 % of control and 98 % of control. For the same compound, the T/C [12] was 98 % of control.
In the case of `COc1cc2c(cc1C1CCCCCc3c1n(C)c1ccccc31)C1CCCCC1N2C` (configuration not stated), the T/C (dose: 12.5 mg/kg/injection, schedule: Q01DX001 (ip), vehicle: distilled water + Tween-80) is reported as 108 % of control, the T/C (dose: 25.0 mg/kg/injection, schedule: Q01DX001 (ip), vehicle: distilled water + Tween-80) is reported as 116 % of control and the T/C (dose: 50.0 mg/kg/injection, schedule: Q01DX001 (ip), vehicle: distilled water + Tween-80) is reported as 101 % of control. For the same compound, the T/C (dose: 100.0 mg/kg/injection, schedule: Q01DX001 (ip), vehicle: distilled water + Tween-80) was 111 % of control and the T/C (dose: 200.0 mg/kg/injection, schedule: Q01DX001 (ip), vehicle: distilled water + Tween-80) was 111 % of control.
For `CCOC(=O)NC(NC(=O)OCC)c1ccncc1`, the T/C (dose: 100.0 mg/kg/injection, schedule: Q04DX003 (ip), vehicle: saline) was 94 % of control, the T/C (dose: 200.0 mg/kg/injection, schedule: Q04DX003 (ip), vehicle: saline) was 98 % of control and the T/C (dose: 400.0 mg/kg/injection, schedule: Q04DX003 (ip), vehicle: saline) was 99 % of control.
In the case of `O=C1Nc2ccccc2/C1=N/N(c1ccccc1)c1ccccc1`, the T/C [13] is reported as 95 % of control, the T/C [14] is reported as 101 % of control and the T/C [15] is reported as 99 % of control.
In the case of `CC(C)CC(NC(=O)OCc1ccccc1)C(=O)O` (configuration not stated), the T/C [13] is reported as 105 % of control and the T/C [14] is reported as 101 % of control.
For `Nc1nc2c(C(=O)N3CCCC3)nnn2c2ccccc12`, the T/C [1] was 93 % of control and the T/C [2] was 94 % of control.
For `CCCCCn1c(Cl)c(C=O)c2ccccc21`, the T/C [7] was 97 % of control, the T/C [8] was 98 % of control and the T/C [9] was 100 % of control.
For `CCCCCCCCC(C(=O)c1ccccc1)=C(C(F)(F)F)C(F)(F)F`, the T/C (dose: 25.0 mg/kg/injection, schedule: Q04DX003 (ip), vehicle: saline with Tween-80) was 100 % of control, the T/C (dose: 50.0 mg/kg/injection, schedule: Q04DX003 (ip), vehicle: saline with Tween-80) was 95 % of control and the T/C (dose: 100.0 mg/kg/injection, schedule: Q04DX003 (ip), vehicle: saline with Tween-80) was 104 % of control.
In the case of `CCOC(=O)c1c(-c2ccccc2)csc1NC(=O)CN1CCOCC1`, the T/C (dose: 12.5 mg/kg/injection, schedule: Q01DX005 (ip), vehicle: saline with Tween-80) is reported as 98 % of control, the T/C (dose: 25.0 mg/kg/injection, schedule: Q01DX005 (ip), vehicle: saline with Tween-80) is reported as 90 % of control and the T/C [13] is reported as 86 % of control. For the same compound, the T/C [15] was 88 % of control.
With `S=C(SSC(=S)Sc1ccccc1)Sc1ccccc1` the T/C [7] was 112 % of control, the T/C [8] was 107 % of control and the T/C [9] was 102 % of control.
In the case of `Oc1c(CNCCCN2CCCC2)cc(Cl)c2cccnc12`, the T/C (dose: 12.5 mg/kg/injection, schedule: Q01DX009 (ip), vehicle: saline) is reported as 102 % of control and 107 % of control, the T/C (dose: 25.0 mg/kg/injection, schedule: Q01DX009 (ip), vehicle: saline) is reported as 91 % of control and 96 % of control and the T/C (dose: 50.0 mg/kg/injection, schedule: Q01DX009 (ip), vehicle: saline) is reported as 88 % of control and 95 % of control. For the same compound, the T/C (dose: 100.0 mg/kg/injection, schedule: Q01DX009 (ip), vehicle: saline) was 110 % of control and 112 % of control.
With `N#CNC(=S)SCC(N)=O` the T/C [16] was 100 % of control, the T/C [17] was 100 % of control and the T/C [18] was 102 % of control.
For `O=c1[nH]c(=O)n(C(c2ccccc2)(c2ccccc2)c2ccccc2)cc1N(CCO)CCO`, the T/C [16] was 100 % of control, the T/C [17] was 97 % of control and the T/C [18] was 98 % of control.
